Tests used:
[1] = Cytotoxicity determination in HepG2.2.15 cells (CCK-8 cell viability); type: cell-based; settings: human, 6 days treatment, CCK-8 assay, highest concentration 100 uM
How it was run: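 Viability measured by CCK-8 absorbance (450 nm, 630 nm reference, 2.5 h at 37° C) after six days of treatment, medium and compound renewed on day 3. Top concentration 100 uM, eight threefold dilutions in triplicate; cells plated at 5,000/well in 2% FBS medium; CC50 derived.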

HBV = test: Anti-HBV activity in HepG2.2.15 cells (HBV DNA in culture medium by qPCR); type: cell-based; settings: Hepatitis B virus, HepG2.2.15, 144 h, HepG2.2.15 cells, 6 days treatment, HBV DNA in culture medium quantified by real-time PCR; read-out: EC50
How it was run: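 Secreted HBV DNA was measured by real-time PCR after 6-day compound exposure of HepG2.2.15 cells (2% FBS, 37 °C, re-dosed after 3 days), giving EC50 from 8-point 1:3 series starting at 10 or 1 uM. Cytotoxicity (CC50) run separately at lower cell density, top 100 uM.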

Compound | CC50 at 6 days [1] [nM] | EC50 (HBV) [nM]
CCOC(=O)C1=C(CN2CC(F)(F)[C@H]3[C@@H]2CCN3CCC(C)(C)C(=O)O)NC(c2nccn2C)=N[C@H]1c1cccc(F)c1C (single isomer, unassigned) [Compound 146, 4-((cis)-4-((5-(Ethoxycarbonyl)-6-(3-fluoro-2-methylphenyl)-2-(1-methyl-1H-imidazol-2-yl)-3,6-dihydropyrimidin-4-yl)methyl)-6,6-difluorohexahydropyrrolo[3,2-b]pyrrol-1(2H)-yl)-2,2-dimethylbutanoic acid] | 32200 | 13.1
CCOC(=O)C1=C(CN2CC(F)(F)[C@H]3[C@@H]2CCN3CCC(C)C(=O)O)NC(c2nccs2)=N[C@H]1c1cccc(F)c1C (single isomer, unassigned) [Compound 147] | 34600 | < 0.5
CCOC(=O)C1=C(CN2CC(F)(F)[C@H]3[C@@H]2CCN3CCOC(C)C(=O)O)NC(c2nccs2)=N[C@H]1c1cccc(F)c1C (single isomer, unassigned) [Compound 148] | 34100 | 7.3
CCOC(=O)C1=C(CN2CC(F)(F)[C@H]3[C@@H]2CCN3C[C@@H](C)C(=O)O)NC(c2nccs2)=N[C@H]1c1cccc(F)c1Cl (single isomer, unassigned) [Compound 149A] | 21800 | < 0.5
CCOC(=O)C1=C(CN2CC(F)(F)[C@H]3[C@@H]2CCN3C[C@H](C)C(=O)O)NC(c2nccs2)=N[C@H]1c1cccc(F)c1Cl (single isomer, unassigned) [Compound 149B] | 34100 | 1.9
CCOC(=O)C1=C(CN2CC(F)(F)[C@H]3[C@@H]2CCN3c2ncc(C(=O)O)cn2)NC(c2nccs2)=N[C@H]1c1cccc(F)c1C (single isomer, unassigned) [Compound 150] | 15000 | 57
CCCOC(=O)C1=C(CN2CC(F)(F)[C@H]3[C@@H]2CCN3CCC(C)(C)C(=O)O)NC(c2nccs2)=N[C@H]1c1cccc(F)c1C (single isomer, unassigned) [Compound 151] | 9300 | 18.7
Cc1c(F)cccc1[C@@H]1N=C(c2nccs2)NC(CN2CC(F)(F)[C@H]3[C@@H]2CCN3CCC(C)(C)C(=O)O)=C1C(=O)OC(C)C (single isomer, unassigned) [Compound 152] | 12700 | 61.8
CCOC(=O)C1=C(CN2CC(F)(F)[C@H]3[C@@H]2CC(C)N3CCC(C)(C)C(=O)O)NC(c2nccs2)=N[C@H]1c1cccc(F)c1C (single isomer, unassigned) [Compound 153] | 21800 | 6
CCOC(=O)C1=C(CN2CC(F)(F)[C@H]3[C@@H]2CC2(CC2)N3CCC(C)(C)C(=O)O)NC(c2nccs2)=N[C@H]1c1cccc(F)c1C (single isomer, unassigned) [Compound 154] | 48300 | 71
CCOC(=O)C1=C(CN2CC(F)(F)[C@H]3[C@@H]2CCN3CC23CC(C(=O)O)(C2)C3)NC(c2nccs2)=N[C@H]1c1cccc(F)c1C (single isomer, unassigned) [Compound 155] | 10000 | 0.7
CCOC(=O)C1=C(CN2CC(F)(F)[C@H]3[C@@H]2CC(=O)N3CCCC(C)(C)C(=O)O)NC(c2nccs2)=N[C@H]1c1cccc(F)c1C (single isomer, unassigned) [Compound 156] | 10300 | 63
[2H]C1([2H])C[C@H]2[C@@H](N1CCC(C)(C)C(=O)O)C(F)(F)CN2CC1=C(C(=O)OCC)[C@H](c2cccc(F)c2C)N=C(c2nccs2)N1 (single isomer, unassigned) [Compound 157] | 24800 | 0.8
CCOC(=O)C1=C(CN2CC(F)(F)[C@H]3[C@@H]2CC(=O)N3[C@H]2CC[C@@H](C(=O)O)CC2)NC(c2nccs2)=N[C@H]1c1cccc(F)c1C (single isomer, unassigned) [Compound 158A] | 27900 | 53.1
CCOC(=O)C1=C(CN2CC(F)(F)[C@H]3[C@@H]2CC(=O)N3[C@H]2CC[C@H](C(=O)O)CC2)NC(c2nccs2)=N[C@H]1c1cccc(F)c1C (single isomer, unassigned) [Compound 158B] | 16600 | 52.6
CCOC(=O)C1=C(CN2CC(F)(F)[C@H]3[C@@H]2CCN3CC(C)(C)C(=O)O)NC(c2nccs2)=N[C@@H]1c1ccc(F)nc1C (single isomer, unassigned) [Compound 159, 3-((cis)-4-((5-(ethoxycarbonyl)-6-(6-fluoro-2-methylpyridin-3-yl)-2-(thiazol-2-yl)-3,6-dihydropyrimidin-4-yl)methyl)-6,6-difluorohexahydropyrrolo[3,2-b]pyrrol-1(2H)-yl)-2,2-dimethylpropanoic acid] | 75700 | 0.6
COC(=O)C1=C(CN2CC(F)(F)[C@@H]3[C@H]2CON3CCC(C)(C)C(=O)O)NC(c2nccs2)=N[C@H]1c1cccc(F)c1C (single isomer, unassigned) [Compound 160] | 100000 | 14
COC(=O)C1=C(CN2CC(F)(F)[C@@H]3[C@H]2CON3CCC(C)(C)C(=O)O)NC(c2nccs2)=N[C@H]1c1ccc(F)c(F)c1C (single isomer, unassigned) [Compound 161, (cis)-4-(4-((6-(3,4-difluoro-2-methylphenyl)-5-(methoxycarbonyl)-2-(thiazol-2-yl)-3,6-dihydropyrimidin-4-yl)methyl)-6,6-difluorohexahydro-1H-pyrrolo[3,2-c]isoxazol-1-yl)-2,2-dimethylbutanoic acid] | > 50000 | 8
COC(=O)C1=C(CN2CC(F)(F)[C@@H]3[C@H]2CON3CCC(C)(C)C(=O)O)NC(c2nccs2)=N[C@H]1c1ccc(F)c(F)c1Cl (single isomer, unassigned) [Compound 162, (cis)-4-(4-((6-(2-chloro-3,4-difluorophenyl)-5-(methoxycarbonyl)-2-(thiazol-2-yl)-3,6-dihydropyrimidin-4-yl)methyl)-6,6-difluorohexahydro-1H-pyrrolo[3,2-c]isoxazol-1-yl)-2,2-dimethylbutanoic acid] | 50000 | 5
CCOC(=O)C1=C(CN2CC(F)(F)[C@@H]3[C@H]2CON3CCC(C)(C)C(=O)O)NC(c2nccs2)=N[C@H]1c1ccc(F)c(F)c1Cl (single isomer, unassigned) [Compound 163, (cis)-4-(4-((6-(2-chloro-3,4-difluorophenyl)-5-(ethoxycarbonyl)-2-(thiazol-2-yl)-3,6-dihydropyrimidin-4-yl)methyl)-6,6-difluorohexahydro-1H-pyrrolo[3,2-c]isoxazol-1-yl)-2,2-dimethylbutanoic acid] | 45600 | 2
CCOC(=O)C1=C(CN2CC(F)(F)[C@@H]3[C@H]2CON3CCC(C)(C)C(=O)O)NC(c2nccs2)=N[C@@H]1c1ccc(F)c(F)c1C (single isomer, unassigned) [Compound 164, (cis)-4-(4-((6-(3,4-difluoro-2-methylphenyl)-5-(ethoxycarbonyl)-2-(thiazol-2-yl)-3,6-dihydropyrimidin-4-yl)methyl)-6,6-difluorohexahydro-1H-pyrrolo[3,2-c]isoxazol-1-yl)-2,2-dimethylbutanoic acid] | > 25000 | 3
CCOC(=O)C1=C(CN2CC(F)(F)[C@@H]3[C@H]2CON3CCC(C)(C)C(=O)O)NC(c2nc(C)cs2)=N[C@H]1c1cccc(F)c1C (single isomer, unassigned) [Compound 165, (cis)-4-(4-((5-(ethoxycarbonyl)-6-(3-fluoro-2-methylphenyl)-2-(4-methylthiazol-2-yl)-3,6-dihydropyrimidin-4-yl)methyl)-6,6-difluorohexahydro-1H-pyrrolo[3,2-c]isoxazol-1-yl)-2,2-dimethylbutanoic acid] | > 50000 | 8
CCOC(=O)C1=C(CN2CC(F)(F)[C@@H]3[C@H]2CON3CCC(C)(C)C(=O)O)NC(c2nccs2)=N[C@@H]1c1ccc(F)nc1C (single isomer, unassigned) [Compound 166, 4-((cis)-4-((5-(ethoxycarbonyl)-6-(6-fluoro-2-methylpyridin-3-yl)-2-(thiazol-2-yl)-3,6-dihydropyrimidin-4-yl)methyl)-6,6-difluorohexahydro-1H-pyrrolo[3,2-c]isoxazol-1-yl)-2,2-dimethylbutanoic acid] | > 100000 | 59
COC(=O)C1=C(CN2CC(F)(F)[C@@H]3[C@H]2CON3CCC(C)(C)C(=O)O)NC(c2nccs2)=N[C@H]1c1cccc(F)c1F (single isomer, unassigned) [Compound 167, 4-((cis)-4-((6-(2,3-difluorophenyl)-5-(methoxycarbonyl)-2-(thiazol-2-yl)-3,6-dihydropyrimidin-4-yl)methyl)-6,6-difluorohexahydro-1H-pyrrolo[3,2-c]isoxazol-1-yl)-2,2-dimethylbutanoic acid] | > 100000 | 16.3
COC(=O)C1=C(CN2CC(F)(F)[C@@H]3[C@H]2CON3CCC(C)(C)C(=O)O)NC(c2nccs2)=N[C@H]1c1ccc(F)cc1Cl (single isomer, unassigned) [Compound 168, 4-((cis)-4-((6-(2-chloro-4-fluorophenyl)-5-(methoxycarbonyl)-2-(thiazol-2-yl)-3,6-dihydropyrimidin-4-yl)methyl)-6,6-difluorohexahydro-1H-pyrrolo[3,2-c]isoxazol-1-yl)-2,2-dimethylbutanoic acid] | > 100000 | 9
